According to publication PMC9068870, “Modulation of Morphine Analgesia, Antinociceptive Tolerance, and Mu-Opioid Receptor Binding by the Cannabinoid CB2 Receptor Agonist O-1966” (Frontiers in Pharmacology, 2022):
pKi: −log10 of the molar value.

What was measured:
[1] = biological target: T1, rat mu-opioid receptor (rMOR) (Rattus norvegicus, UniProt P33535); assay: competition with [3H]DAMGO, filtration, CHO-rMOR membranes; type: binding
T1 construct: gene Oprm1; stably expressed in CHO cells (CHO-rMOR); cell membranes
T1 sequence (P33535 whole entry): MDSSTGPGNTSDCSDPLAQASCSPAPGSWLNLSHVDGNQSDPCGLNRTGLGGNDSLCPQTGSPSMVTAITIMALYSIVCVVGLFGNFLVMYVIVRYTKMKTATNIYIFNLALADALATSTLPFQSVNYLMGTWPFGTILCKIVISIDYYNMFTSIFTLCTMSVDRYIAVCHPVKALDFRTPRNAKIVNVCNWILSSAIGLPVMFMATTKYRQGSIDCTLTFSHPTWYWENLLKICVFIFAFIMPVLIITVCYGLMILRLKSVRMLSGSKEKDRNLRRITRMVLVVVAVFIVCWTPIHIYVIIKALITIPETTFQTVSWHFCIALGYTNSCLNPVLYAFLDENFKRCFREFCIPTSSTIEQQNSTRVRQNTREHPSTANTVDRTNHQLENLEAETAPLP

[2] = biological target: T1, rat mu-opioid receptor (rMOR); assay: […]GTPγS binding, CHO-rMOR membranes; type: biochemical; conditions: O-1966 10 min before 0.5 µM morphine; 10 µM GDP, 50 mM HEPES, 100 mM NaCl, 5 mM MgCl2, 30 °C, 1 h; negative allosteric mode suggested only

With `CCCCCCC(C)(C)c1cc(OC)c(C2(O)CCCC(C)C2)c(OC)c1` (centres unmarked) [O-1966] the pKi [1] was 5.52 and the “% reduction of morphine response at 10 μM” value [2] was 20%.
